Data from patent US20260217701A1, “SELECTIVE BET INHIBITORS AND USES THEREOF” (Tay Therapeutics Limited, priority 2022, published 2026).
Where “and” joins values, the source holds several entries; their conditions need not be identical. Equal values may be shown once.

Experiment: Dog PK study #3 (Compound A PO once daily 5 days, 5/10/20 mg/kg; PK, body weight, hematology)
Assay type: in vivo, beagle dogs
Set-up: Plasma Concentration: unit not given here
Conditions: for Neutrophils: range 1.80-10.83; for White Blood Cells: range 4.81-15.67; for Platelets: range 127-393; for Accumulative Index of AUC0-last (Day 5/Day 1) / Accumulative Index of Cmax (Day 5/Day 1): PO
Experimental: For the third dog pharmacokinetic study, three solutions of different concentrations of Compound A were prepared in 5% DMSO/15% PEG-400/80% (10% VE-TPGS) as outlined in Table 2E. The Compound A solutions were administered to animals orally (PO) once daily over a five-day period. Body weight was recorded prior to dosing, and detailed clinical observations were made prior to dosing and throughout the study, as needed.
Animals were divided into Day 1 and Day 5 sample collection groups, with animals in the Day 1 collection group having blood samples taken prior to dosing and at 0.25, 0.5, 1, 2, 4, 8, and 24 hours after dosing on day 1. Animals in the Day 5 collection group having blood samples taken prior to dosing and at 0.25, 0.5, 1, 2, 4, 8, and 24 hours after dosing on day 5. Study groups are outlined in Table 3D.
Blood samples (~0.3 mL) were collected on day according to the following schedule (0.25, 0.5, 1, 2, 4, 8, and 24 h) after day 5 administration of Compound A by venipuncture of peripheral veins except for the dosing vein, and EDTA-K2 was used as anticoagulant. Within 30 minutes of collection, the samples were centrifuged at approximately 2000 times g-force for 10 minutes at 4° C. to obtain blood plasma. The plasma samples were immediately divided into two aliquots (~75 μL each), transferred to a cryogenic vial, and stored in a freezer at −75±15° C. prior to analysis.
The concentration of Compound A in the blood plasma was determined through LC-MS as previously described. Briefly, the experiments were conducted on a DMPK-LCMS-14-SMBA Triple Quad 6500 Plus instrument with an ACQUITY UPLC BEH C18 1.7 μm (50×2.1 mm) column. The matrix was male beagle dog plasma potassium (K2) EDTA A gradient of 95% water (0.1% formic acid and 2 mM HCOONH4)/95% acetonitrile (0.1% formic acid and 2 mM HCOONH4) was used as the mobile phase. The sample flow rate was 0.6 mL/min.
The samples were then vortex-mixed for 10 minutes at 800 rpm and centrifuged for 15 minutes at 3220×g at 4° C. 50 μL aliquots of supernatant were transferred to a clean 96-well plate and centrifuged for 5 minutes at 3220×g at 4° C. Samples were then injected into the LC/MS/MS system for quantitative analysis.
The gathered data were used for pharmacokinetic calculations using T1/2, CO, AUClast, AUCinf, MRTinf, Cl, Vss, and Number of Points for Regression as parameters.
The cell composition (hematology) of blood samples was analyzed at day 5. Analyses identified the total number of white blood cells, neutrophils, lymphocytes, monocytes, eosinophils, basophils, and platelets in collected samples.

[1] = Day 5, 10 mg/kg dose PO, individual animals
[2] = Day 5, 20 mg/kg dose PO, individual animals
[3] = Day 5, Group 1, individual animals
[4] = Day 5, Group 2, individual animals
[5] = Day 5, Group 3, individual animals

**Q.** With `Cn1cc(-c2ccccc2)c(-c2cn(C)c(=O)c3[nH]c(-c4cnn(C(F)(F)F)c4)cc23)cc1=O` [Compound A, 6-methyl-4-(1-methyl-2-oxo-5-phenyl-1,2-dihydropyridin-4-yl)-2-(1-(trifluoromethyl)-1H-pyrazol-4-yl)-1,6-dihydro-7H-pyrrolo[2,3-c]pyridin-7-one] as the compound, how does the Neutrophils (Day 5, 5 mg/kg/day (mean)) read?
**A.** 7.08 10^3/μL

**Q.** And the “White Blood Cells” value (Day 5, 5 mg/kg/day (mean))?
**A.** 10.59 103/μL

**Q.** What about the Platelets (Day 5, 5 mg/kg/day (mean)) of the same compound?
**A.** 224.0 10^3/μL

**Q.** What about the “Plasma Concentration” value (Day 5, 10 mg/kg dose PO, time 1, individual animals) of the same compound?
**A.** 1610 and 2220

**Q.** And the “Plasma Concentration” value (Day 5, 10 mg/kg dose PO, time 1, mean)?
**A.** 1915

**Q.** And the “Plasma Concentration” value (Day 5, 10 mg/kg dose PO, time 2, individual animals)?
**A.** 1740 and 2780

**Q.** And the “Plasma Concentration” value (Day 5, 10 mg/kg dose PO, time 2, mean)?
**A.** 2260

**Q.** And the “Plasma Concentration” value (Day 5, 10 mg/kg dose PO, time 4, individual animals)?
**A.** 1460 and 2310

**Q.** What about the “Plasma Concentration” value (Day 5, 10 mg/kg dose PO, time 4, mean) of the same compound?
**A.** 1885

**Q.** What about the “Plasma Concentration” value (Day 5, 10 mg/kg dose PO, time 8, individual animals) of the same compound?
**A.** 1190 and 1940

**Q.** What about the “Plasma Concentration” value (Day 5, 10 mg/kg dose PO, time 8, mean) of the same compound?
**A.** 1565

**Q.** What about the AUC0-last [1] of the same compound?
**A.** 36.083 µg·h/mL

**Q.** What about the AUC(0-inf) [1] of the same compound?
**A.** 45.289 µg·h/mL

**Q.** And the AUCExtra [1]?
**A.** 10.6% and 20.3%

**Q.** What about the AUMCExtra [1] of the same compound?
**A.** 32.6% and 51.3%

**Q.** What about the Cl_F [1] of the same compound?
**A.** 7.25 mL/min/kg and 3.68 mL/min/kg

**Q.** And the Cmax [1]?
**A.** 2780 ng/mL

**Q.** And the MRT0-inf [1]?
**A.** 15.4 h

**Q.** And the MRT0-last [1]?
**A.** 9.39 h

**Q.** What about the Tlast [1] of the same compound?
**A.** 24.0 h

**Q.** And the T½ [1]?
**A.** 10.3 h

**Q.** What about the Vz_F [1] of the same compound?
**A.** 4.58 L/kg and 3.27 L/kg

**Q.** And the AUC0-last (Day 5, 10 mg/kg dose PO, mean)?
**A.** 28.307 µg·h/mL

**Q.** And the AUCExtra (Day 5, 10 mg/kg dose PO, mean)?
**A.** 15.5%

**Q.** And the AUMCExtra (Day 5, 10 mg/kg dose PO, mean)?
**A.** 42.0%

**Q.** What about the Cl_F (Day 5, 10 mg/kg dose PO, mean) of the same compound?
**A.** 5.47 mL/min/kg

**Q.** And the Tlast (Day 5, 10 mg/kg dose PO, mean)?
**A.** 24.0 h

**Q.** And the Vz_F (Day 5, 10 mg/kg dose PO, mean)?
**A.** 3.92 L/kg

**Q.** And the Basophils (Day 5, 10 mg/kg/day (mean), range 0.00-0.19)?
**A.** 0.07 10^3/μL

**Q.** What about the Eosinophils (Day 5, 10 mg/kg/day (mean), range 0.00-1.24) of the same compound?
**A.** 0.40 10^3/μL

**Q.** And the Monocytes (Day 5, 10 mg/kg/day (mean), range 0.11-1.08)?
**A.** 0.48 10^3/μL

**Q.** And the Lymphocytes (Day 5, 10 mg/kg/day (mean), range 1.42-3.76)?
**A.** 3.31 10^3/μL

**Q.** And the Neutrophils (Day 5, 10 mg/kg/day (mean))?
**A.** 6.59 10^3/μL

**Q.** And the “White Blood Cells” value (Day 5, 10 mg/kg/day (mean))?
**A.** 10.86 103/μL

**Q.** And the Platelets (Day 5, 10 mg/kg/day (mean))?
**A.** 273.0 10^3/μL

**Q.** What about the “Plasma Concentration” value (Day 5, 20 mg/kg dose PO, time 1, individual animals) of the same compound?
**A.** 3150 and 2130

**Q.** And the “Plasma Concentration” value (Day 5, 20 mg/kg dose PO, time 1, mean)?
**A.** 2640

**Q.** And the “Plasma Concentration” value (Day 5, 20 mg/kg dose PO, time 2, individual animals)?
**A.** 3510 and 2220

**Q.** And the “Plasma Concentration” value (Day 5, 20 mg/kg dose PO, time 2, mean)?
**A.** 2865

**Q.** What about the “Plasma Concentration” value (Day 5, 20 mg/kg dose PO, time 4, individual animals) of the same compound?
**A.** 3160 and 2040

**Q.** What about the “Plasma Concentration” value (Day 5, 20 mg/kg dose PO, time 4, mean) of the same compound?
**A.** 2600

**Q.** And the “Plasma Concentration” value (Day 5, 20 mg/kg dose PO, time 8, individual animals)?
**A.** 2430 and 2170

**Q.** And the “Plasma Concentration” value (Day 5, 20 mg/kg dose PO, time 8, mean)?
**A.** 2300

**Q.** And the AUC0-last [2]?
**A.** 43.537 µg·h/mL and 16.801 µg·h/mL

**Q.** And the AUC(0-inf) [2]?
**A.** 49.399 µg·h/mL and 2087.5 µg·h/mL

**Q.** And the AUCExtra [2]?
**A.** 11.9% and 99.2%

**Q.** What about the AUMCExtra [2] of the same compound?
**A.** 35.5% and 100%

**Q.** And the Cl_F [2]?
**A.** 6.75 mL/min/kg and 0.160 mL/min/kg

**Q.** What about the Cmax [2] of the same compound?
**A.** 2220 ng/mL

**Q.** What about the MRT0-inf [2] of the same compound?
**A.** 11.7 h and 955 h

**Q.** And the MRT0-last [2]?
**A.** 8.57 h and 4.03 h

**Q.** What about the Tlast [2] of the same compound?
**A.** 24.0 h and 8.00 h

**Q.** What about the T½ [2] of the same compound?
**A.** 7.64 h

**Q.** And the Vz_F [2]?
**A.** 4.46 L/kg and 9.29 L/kg

**Q.** And the AUC0-last (Day 5, 20 mg/kg dose PO, mean)?
**A.** 30.169 µg·h/mL

**Q.** What about the AUCExtra (Day 5, 20 mg/kg dose PO, mean) of the same compound?
**A.** 55.6%

**Q.** What about the AUMCExtra (Day 5, 20 mg/kg dose PO, mean) of the same compound?
**A.** 67.8%

**Q.** What about the Cl_F (Day 5, 20 mg/kg dose PO, mean) of the same compound?
**A.** 3.45 mL/min/kg

**Q.** What about the Vz_F (Day 5, 20 mg/kg dose PO, mean) of the same compound?
**A.** 6.87 L/kg

**Q.** And the “Animal body weight” value [3]?
**A.** 8.22 kg and 9.18 kg

**Q.** And the “Clinical Observation” value [3]?
**A.** None

**Q.** What about the “Animal Body Weight, Mean” value (Day 5, Group 1, mean) of the same compound?
**A.** 8.70 kg

**Q.** And the “Animal body weight” value [4]?
**A.** 9.31 kg and 8.43 kg

**Q.** And the “Clinical Observation” value [4]?
**A.** None

**Q.** And the “Animal Body Weight, Mean” value (Day 5, Group 2, mean)?
**A.** 8.87 kg

**Q.** What about the “Animal body weight” value [5] of the same compound?
**A.** 8.88 kg and 8.11 kg

**Q.** And the “Clinical Observation” value [5]?
**A.** None

**Q.** And the “Animal Body Weight, Mean” value (Day 5, Group 3, mean)?
**A.** 8.50 kg

**Q.** And the “Accumulative Index of AUC0-last (Day 5/Day 1)” value (from here on “Accumulative Index of AUC0-last”) (dose level 5.00 mg/kg)?
**A.** 1.53

**Q.** And the “Accumulative Index of Cmax (Day 5/Day 1)” value (dose level 5.00 mg/kg)?
**A.** 1.57

**Q.** And the “Accumulative Index of AUC0-last” value (dose level 10.0 mg/kg)?
**A.** 1.62

**Q.** And the “Accumulative Index of Cmax (Day 5/Day 1)” value (dose level 10.0 mg/kg)?
**A.** 1.31

**Q.** And the “Accumulative Index of AUC0-last” value (dose level 20.0 mg/kg)?
**A.** 0.445

**Q.** What about the “Accumulative Index of Cmax (Day 5/Day 1)” value (dose level 20.0 mg/kg) of the same compound?
**A.** 0.555

**Q.** And the “time plasma concentration remained above the free EC50 BD2” value (all doses administered)?
**A.** 24 h

**Q.** And the “white blood cell fraction parameters” value (day 5)?
**A.** within range

**Q.** And the AUC(0-t) (male, beagle, dog, plasma, po, 5 mg/kg, Day 1, 5 mg/kg dose PO, individual animals)?
**A.** 11.6 µg·h/mL
